# From patent publication US12479843B2, “Spiro ring-containing quinazoline compounds” (WIGEN BIOMEDICINE TECHNOLOGY (SHANGHAI) CO., LTD., priority 2019, dated 2025)
# How the values were obtained:
# [1] = tested on: H358 cells; assay: Antiproliferative activity against H358 cells (Cell Titer Glow, ultra-low attachment plate); type: cell-based; settings: Homo sapiens, NCI-H358, 72 h, 96-well ultra-low attachment plate, three days after addition of compound, Cell Titer Glow
# Protocol: 2500 H358 cells were seeded in a 96-well ultra-low attachment plate (corning, 7007). After one day of growth, a serially diluted compound (a maximum concentration of 5 μM, 5-fold dilution, a total of five doses) was added. Three days after the addition of the compound, Cell Titer Glow (Promega, G9681) was added to evaluate pellet growth, and the IC50 value was calculated.
# [2] = tested on: pERK level in H358 cells; assay: pERK and ERK protein content assay in H358 cells (ELISA); type: cell-based; settings: Homo sapiens, NCI-H358, compound 1 μM, 24 h, pERK/ERK ratio compared with DMSO group, read-out: Inhibition rate (%) of pERK level
# Summary of the method: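 H358 cells grown one day, then treated 24 h with compound at 1 μM. pERK and ERK in lysates measured by ELISA; pERK/ERK ratio expressed as percent inhibition versus DMSO.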
Structure (SMILES),IC50 [1] [nM],inhibition at 1 µM [2] [%]
C=C(F)C(=O)N1CC2(CCN(c3nc(N4CC5(CCN(CCOCC)CC5)C4)nc4c(OCC(F)(F)F)c(-c5c(C)ccc6[nH]ncc56)c(C5CC5)cc34)CC2)C1 [Compound 94],< 300,> 90
C=CC(=O)N1CC2(CCN(c3nc(N4CC5(CCN(CCCOC)CC5)C4)nc4c(OCC(F)(F)F)c(-c5c(C)ccc6[nH]ncc56)c(C5CC5)cc34)CC2)C1 [Compound 95],< 300,> 90
C=C(F)C(=O)N1CC2(CCN(c3nc(N4CC5(CCN(CCCOC)CC5)C4)nc4c(OCC(F)(F)F)c(-c5c(C)ccc6[nH]ncc56)c(C5CC5)cc34)CC2)C1 [Compound 96],< 300,> 90
C=CC(=O)N1CC2(CCN(c3nc(N4CCC5(CN(C)C5)C4)nc4c(OCC(F)(F)F)c(-c5c(C)ccc6[nH]ncc56)c(C5CC5)cc34)CC2)C1 [Compound 97],300 to 1000,50 to 90
C=C(F)C(=O)N1CC2(CCN(c3nc(N4CCC5(CN(C)C5)C4)nc4c(OCC(F)(F)F)c(-c5c(C)ccc6[nH]ncc56)c(C5CC5)cc34)CC2)C1 [Compound 98],300 to 1000,50 to 90
C=CC(=O)N1CC2(CCN(c3nc(N4CCC5(CN(CCOC)C5)C4)nc4c(OCC(F)(F)F)c(-c5c(C)ccc6[nH]ncc56)c(C5CC5)cc34)CC2)C1 [Compound 99],< 300,> 90
C=C(F)C(=O)N1CC2(CCN(c3nc(N4CCC5(CN(CCOC)C5)C4)nc4c(OCC(F)(F)F)c(-c5c(C)ccc6[nH]ncc56)c(C5CC5)cc34)CC2)C1 [Compound 100],< 300,> 90
C=CC(=O)N1CC2(CCN(c3nc(N4CCC5(CCN(CCOC)CC5)C4)nc4c(OCC(F)(F)F)c(-c5c(C)ccc6[nH]ncc56)c(C5CC5)cc34)CC2)C1 [Compound 101],< 300,> 90
C=C(F)C(=O)N1CC2(CCN(c3nc(N4CCC5(CCN(CCOC)CC5)C4)nc4c(OCC(F)(F)F)c(-c5c(C)ccc6[nH]ncc56)c(C5CC5)cc34)CC2)C1 [Compound 102],< 300,> 90
C=CC(=O)N1CC2(CCN(c3nc(N4CCC5(CC4)CN(CCOC)C5)nc4c(OCC(F)(F)F)c(-c5c(C)ccc6[nH]ncc56)c(C5CC5)cc34)CC2)C1 [Compound 103],< 300,> 90
C=C(F)C(=O)N1CC2(CCN(c3nc(N4CCC5(CC4)CN(CCOC)C5)nc4c(OCC(F)(F)F)c(-c5c(C)ccc6[nH]ncc56)c(C5CC5)cc34)CC2)C1 [Compound 104],300 to 1000,50 to 90
C=CC(=O)N1CC2(CCN(c3nc(N4CCC5(CCN(CCOC)C5)CC4)nc4c(OCC(F)(F)F)c(-c5c(C)ccc6[nH]ncc56)c(C5CC5)cc34)CC2)C1 [Compound 105],< 300,> 90
C=C(F)C(=O)N1CC2(CCN(c3nc(N4CCC5(CCN(CCOC)C5)CC4)nc4c(OCC(F)(F)F)c(-c5c(C)ccc6[nH]ncc56)c(C5CC5)cc34)CC2)C1 [Compound 106],300 to 1000,50 to 90
C=CC(=O)N1CC2(CCN(c3nc(N4CCC5(CCN(CCOC)CC5)CC4)nc4c(OCC(F)(F)F)c(-c5c(C)ccc6[nH]ncc56)c(C5CC5)cc34)CC2)C1 [Compound 107],300 to 1000,50 to 90
C=C(F)C(=O)N1CC2(CCN(c3nc(N4CCC5(CCN(CCOC)CC5)CC4)nc4c(OCC(F)(F)F)c(-c5c(C)ccc6[nH]ncc56)c(C5CC5)cc34)CC2)C1 [Compound 108],300 to 1000,50 to 90
C=CC(=O)N1CC2(CCN(c3nc(OC4CN(C)C4)nc4c(OCC(F)(F)F)c(-c5c(C)ccc6[nH]ncc56)c(C5CC5)cc34)CC2)C1 [Compound 109],< 300,> 90
C=C(F)C(=O)N1CC2(CCN(c3nc(OC4CN(C)C4)nc4c(OCC(F)(F)F)c(-c5c(C)ccc6[nH]ncc56)c(C5CC5)cc34)CC2)C1 [Compound 110],< 300,> 90
C=CC(=O)N1CC2(CCN(c3nc(OC4CN(C5COC5)C4)nc4c(OCC(F)(F)F)c(-c5c(C)ccc6[nH]ncc56)c(C5CC5)cc34)CC2)C1 [Compound 111],< 300,> 90
C=C(F)C(=O)N1CC2(CCN(c3nc(OC4CN(C5COC5)C4)nc4c(OCC(F)(F)F)c(-c5c(C)ccc6[nH]ncc56)c(C5CC5)cc34)CC2)C1 [Compound 112],300 to 1000,50 to 90

Structure (SMILES),IC50 [1] [nM],inhibition at 1 µM [2] [%]
C=CC(=O)N1CC2(CCN(c3nc(OC4CN(CCOC)C4)nc4c(OCC(F)(F)F)c(-c5c(C)ccc6[nH]ncc56)c(C5CC5)cc34)CC2)C1 [Compound 113],< 300,> 90
C=C(F)C(=O)N1CC2(CCN(c3nc(OC4CN(CCOC)C4)nc4c(OCC(F)(F)F)c(-c5c(C)ccc6[nH]ncc56)c(C5CC5)cc34)CC2)C1 [Compound 114],< 300,> 90
C=CC(=O)N1CC2(CCN(c3nc(OC[C@@H]4COCCN4C)nc4c(OCC(F)(F)F)c(-c5c(C)ccc6[nH]ncc56)c(C5CC5)cc34)CC2)C1 [Compound 115],300 to 1000,50 to 90
C=C(F)C(=O)N1CC2(CCN(c3nc(OC[C@@H]4COCCN4C)nc4c(OCC(F)(F)F)c(-c5c(C)ccc6[nH]ncc56)c(C5CC5)cc34)CC2)C1 [Compound 116],300 to 1000,50 to 90
C=CC(=O)N1CC2(CCN(c3nc(OC[C@@H]4COCCN4CCOC)nc4c(OCC(F)(F)F)c(-c5c(C)ccc6[nH]ncc56)c(C5CC5)cc34)CC2)C1 [Compound 117],< 300,> 90
C=C(F)C(=O)N1CC2(CCN(c3nc(OC[C@@H]4COCCN4CCOC)nc4c(OCC(F)(F)F)c(-c5c(C)ccc6[nH]ncc56)c(C5CC5)cc34)CC2)C1 [Compound 118],< 300,> 90
C=CC(=O)N1CC2(CCN(c3nc(OC4C5CC4CN(CCOC)C5)nc4c(OCC(F)(F)F)c(-c5c(C)ccc6[nH]ncc56)c(C5CC5)cc34)CC2)C1 (centres unmarked) [Compound 119],< 300,50 to 90
C=C(F)C(=O)N1CC2(CCN(c3nc(OC4C5CC4CN(CCOC)C5)nc4c(OCC(F)(F)F)c(-c5c(C)ccc6[nH]ncc56)c(C5CC5)cc34)CC2)C1 (centres unmarked) [Compound 120],300 to 1000,50 to 90
C=CC(=O)N1CC2(CCN(c3nc(OC4CC5CC4CN5CCOC)nc4c(OCC(F)(F)F)c(-c5c(C)ccc6[nH]ncc56)c(C5CC5)cc34)CC2)C1 (centres unmarked) [Compound 121],< 300,50 to 90
C=C(F)C(=O)N1CC2(CCN(c3nc(OC4CC5CC4CN5CCOC)nc4c(OCC(F)(F)F)c(-c5c(C)ccc6[nH]ncc56)c(C5CC5)cc34)CC2)C1 (centres unmarked) [Compound 122],300 to 1000,50 to 90
C=CC(=O)N1CC2(CCN(c3nc(OC4CC5(C4)CN(C)C5)nc4c(OCC(F)(F)F)c(-c5c(C)ccc6[nH]ncc56)c(C5CC5)cc34)CC2)C1 [Compound 123],< 300,> 90
C=C(F)C(=O)N1CC2(CCN(c3nc(OC4CC5(C4)CN(C)C5)nc4c(OCC(F)(F)F)c(-c5c(C)ccc6[nH]ncc56)c(C5CC5)cc34)CC2)C1 [Compound 124],< 300,> 90
C=CC(=O)N1CC2(CCN(c3nc(OC4CC5(C4)CN(CCOC)C5)nc4c(OCC(F)(F)F)c(-c5c(C)ccc6[nH]ncc56)c(C5CC5)cc34)CC2)C1 [Compound 125],< 300,> 90
C=C(F)C(=O)N1CC2(CCN(c3nc(OC4CC5(C4)CN(CCOC)C5)nc4c(OCC(F)(F)F)c(-c5c(C)ccc6[nH]ncc56)c(C5CC5)cc34)CC2)C1 [Compound 126],< 300,> 90
C=CC(=O)N1CC2(CCN(c3nc(OC4CC5(C4)CN(C4COC4)C5)nc4c(OCC(F)(F)F)c(-c5c(C)ccc6[nH]ncc56)c(C5CC5)cc34)CC2)C1 [Compound 127],< 300,> 90
C=C(F)C(=O)N1CC2(CCN(c3nc(OC4CC5(C4)CN(C4COC4)C5)nc4c(OCC(F)(F)F)c(-c5c(C)ccc6[nH]ncc56)c(C5CC5)cc34)CC2)C1 [Compound 128],< 300,> 90
C=CC(=O)N1CC2(CCN(c3nc(OC4CC5(CCN(C)CC5)C4)nc4c(OCC(F)(F)F)c(-c5c(C)ccc6[nH]ncc56)c(C5CC5)cc34)CC2)C1 [Compound 129],< 300,> 90
C=C(F)C(=O)N1CC2(CCN(c3nc(OC4CC5(CCN(C)CC5)C4)nc4c(OCC(F)(F)F)c(-c5c(C)ccc6[nH]ncc56)c(C5CC5)cc34)CC2)C1 [Compound 130],< 300,> 90
